The values below come from patent US20150322033A1, “ANTIBACTERIAL AGENT” (priority 2012, published 2015).

Read-outs that look alike come from different tables or passages of the source. Where only a bound is given, the exact number is not on record here.

In this assay the target is T1, GyrA(wt) + GyrB(wt) (Staphylococcus aureus, UniProt P20831).
T1 construct: made in house; host or cells: E. coli BL21(DE3)
In words: DNA cleavage assay with GyrA(wt) and GyrB(wt). It is filed as biochemical. From the text: The gene sequence encoding the wild-type GyrA of Staphylococcus aureus (henceforth also referred to as “GyrA(wt)”) shown as SEQ ID NO: 1 was cloned into the plasmid pMAL-c2 (produced by New England Biolabs) (the resultant is henceforth also referred to as “pMAL-c2-gyrA”).
The gene sequence encoding the wild-type GyrB of Staphylococcus aureus (henceforth also referred to as “GyrB(wt)”) shown as SEQ ID NO: 2 was cloned into the plasmid pMAL-c2 (produced by New England Biolabs) (the resultant is henceforth also referred to as “pMAL-c2-gyrB”).
E. coliBL21(DE3) (produced by Invitrogen) was transformed with pMAL-c2-gyrA mentioned above, with pMAL-c2-gyrB mentioned above, or with pMAL-c2-SAGAmut84 containing a mutant gyrA encoding the amino acid sequence of GyrA(wt) in which serine residue at the 84th position from the amino terminus is substituted with a leucine residue (see, Hiramatsu K., Igarashi M., Morimoto Y, Baba T., Umekita M., Akamatsu Y., Int. J. Antimicrob. Agents, 2012 June; 39(6), 478-85). To the culture medium of the resulting transformed Escherichia coli, 1 mM […] (produced by Wako Pure Chemical Industries) was added to induce expression of maltose-binding GyrA(wt), maltose-binding GyrB(wt), or maltose-binding mutant GyrA(S84L), and the bacterium was cultured overnight at 25° C. After completion of the culture, the cells were collected, and suspended in a buffer (20 mM Tris-HCl (pH 8.0), 200 mM sodium chloride, 1 mM ethylenediaminetetraacetic acid (EDTA), 1 mM dithiothreitol (DTT)), a protein extracting reagent (10× BugBuster (registered trademark), produced by Novagen) in a volume of 1/10 of the volume of the buffer, and 2.5 μL/10 mL of the buffer of Benzonase (registered trademark) nuclease (produced by Novagen) were added, the mixture was left standing at 25° C. for 30 minutes, and the cells were disrupted and lysed to obtain a disrupted cell suspension containing the maltose-binding GyrA(wt), maltose-binding GyrB(wt), or maltose-binding mutant GyrA(S84L).
Then, each disrupted cell suspension mentioned above was added to a column filled with an amylose resin covalently bound with maltose (produced by Novagen). A buffer (20 mM Tris-HCl (pH 8.0), 200 mM sodium chloride, 1 mM EDTA) containing 10 mM maltose was added to the column to elute the maltose-binding GyrA(wt), maltose-binding GyrB(wt), and maltose-binding mutant GyrA(S84L).
To each eluate, 4 units/1 mL of the eluate of protease (Factor Xa, produced by Amersham) was added, and the mixture was left standing at 25° C. for 3 hours and 30 minutes to cleave the maltose-binding proteins, GyrA(wt), GyrB(wt), and mutant GyrA(S84L) from the maltose-binding GyrA(wt), maltose-binding GyrB(wt), and maltose-binding mutant GyrA(S84L).
Then, GyrA(wt), GyrB(wt), and mutant GyrA(S84L) were concentrated by using an ultrafiltration unit (YM-50 Filter Unit, produced by Millipore).
The concentrated GyrA(wt), GyrB(wt), and mutant GyrA(S84L) were each suspended in a buffer (35 mM Tris-HCl (pH 7.5), 24 mM potassium chloride, 6 mM magnesium chloride, 1.8 mM spermidine, 0.36 mg/mL bovine serum albumin, 5 mM DTT, 50 volume % glycerol) at a concentration of 1 μg/μL for GyrA(wt), 2 μg/μL for GyrB(wt), or 1 μg/μL for mutant GyrA(S84L).
A substrate plasmid DNA, pTWV228 (0.4 μg, produced by Takara Bio), and levofloxacin (LVFX) or apigenin were added to a buffer (35 mM Tris-HCl (pH 7.5), 24 mM potassium chloride, 6 mM magnesium chloride, 1.8 mM spermidine, 0.36 mg/mL bovine serum albumin, 5 mM DTT), and 0.15 μL of the enzyme solution of GyrA(wt) and […] of the enzyme solution of GyrB(wt) were added to the mixture to prepare a reaction mixture in a total volume of 20
Levofloxacin was added at a final concentration of 0, 0.5, 1, 2, 4, 8, 16, or 32 μg/mL.
The aforementioned reaction solution was left standing at 25° C. for 30 minutes to allow the reaction. […]

As for `C[C@H]1COc2c(N3CCN(C)CC3)c(F)cc3c(=O)c(C(=O)O)cn1c23` [Levofloxacin, levofloxacin, reference compound], the “Ratio of cleaved DNA (%)” value is, setting by setting: (0.5 μg/mL, Table 14) 32%; (1 μg/mL, Table 14) 43%; (2 μg/mL, Table 14) 58%; (4 μg/mL, Table 14) 61%; (4 μg/mL, Table 18) 73%; (8 μg/mL, Table 14) 64%. For the same compound, the “Ratio of cleaved DNA (%)” value reads like this: (16 μg/mL, Table 14) 70%; (32 μg/mL, Table 14) 67%. Also, the “Ratio of substrate plasmid DNA (%)” value by setting is: (0.5 μg/mL, Table 14) 68%; (1 μg/mL, Table 14) 57%; (2 μg/mL, Table 14) 42%; (4 μg/mL, Table 14) 39%; (4 μg/mL, Table 18) 27%; (8 μg/mL, Table 14) 36%. The “Ratio of substrate plasmid DNA (%)” value is reported as 30% (16 μg/mL, Table 14) and 33% (32 μg/mL, Table 14). Moreover, the IC50 (Example 4, Table 14, from ratio of cleaved DNA, read-out: IC50 (μg/mL) GyrA(wt) + GyrB(wt) (converted)) was 5.53 µM.

On to `O=c1cc(-c2ccc(O)cc2)oc2cc(O)cc(O)c12` [No. 7, 4′,5,7-Trihydroxyflavone], for which the “Ratio of cleaved DNA (%)” value is reported as 34% (2 μg/mL, Table 14); 35% (4 μg/mL, Table 14); 36% (8 μg/mL, Table 14); 35% (16 μg/mL, Table 14); 40% (32 μg/mL, Table 14); 43% (64 μg/mL, Table 14). For the same compound, the “Ratio of substrate plasmid DNA (%)” value is, setting by setting: (2 μg/mL, Table 14) 66%; (4 μg/mL, Table 14) 65%; (8 μg/mL, Table 14) 64%; (16 μg/mL, Table 14) 65%; (32 μg/mL, Table 14) 60%; (64 μg/mL, Table 14) 57%. The “inhibitory activity against the wild-type DNA gyrase” value (FIG. 1 and 2) is on record as “did not exhibit any inhibitory activity”. The IC50 was above 474 µM (IC50 (μg/mL) GyrA(wt) + GyrB(wt), Example 4, Table 14, from ratio of cleaved DNA); above 474 µM (IC50 GyrA(wt) and GyrB(wt), value in μM).
